Data published in patent publication US10538555B2, “Macrocyclic inhibitors of the PD-1/PD-L1 and CD80(B7-1)/PD-L1 protein/protein interactions” (BRISTOL-MYERS SQUIBB COMPANY, priority 2014, dated 2020).
Where a SMILES comes first, the peptide text is derived from it. Bridges are numbered along the chain shown (N, C = ends). [ ]: non-standard residue; d: D form. ξ: configuration not given here. Trp(1-CH2COOH) = N[C@@H](Cc1cn(CC(=O)O)c2ccccc12)C(=O)O; Phe(3,4,5-F3) = N[C@@H](Cc1cc(F)c(F)c(F)c1)C(=O)O; Phe(3,4-F2) = N[C@@H](Cc1ccc(F)c(F)c1)C(=O)O; d(cisHyp) = O=C(O)[C@H]1C[C@@H](O)CN1; Bta = N[C@@H](Cc1csc2ccccc12)C(=O)O; Hyp = O=C(O)[C@@H]1C[C@@H](O)CN1; NMeF = CN[C@@H](Cc1ccccc1)C(=O)O; dPip(4-aza) = O=C(O)[C@H]1CNCCN1; NMehSer = CN[C@@H](CCO)C(=O)O; NMeNle = CCCC[C@H](NC)C(=O)O; Pip = O=C(O)[C@@H]1CCCCN1; hSer = N[C@@H](CCO)C(=O)O; NMeA = CN[C@@H](C)C(=O)O; Orn = NCCC[C@H](N)C(=O)O; Dab = NCC[C@H](N)C(=O)O; Dap = NC[C@H](N)C(=O)O; ξP = O=C(O)C1CCCN1; ξC = NC(CS)C(=O)O

Target: T1, Human PD-L1/PD-1 (Homo sapiens, UniProt Q9NZQ7)
T1 construct: TVMV protease cleavage site (C); made in house; host or cells: HEK293T cells
Assay: HTRF Human PD-L1/PD-1 binding assay (PD-1-Ig/PD-L1-His)
Details: PD-L1-His 10 nM, PD-1-Ig 20 nM; class symbol; read-out: HTRF Human PD-L1/PD-1 Binding Assay IC50 Range
Summary of the method: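 HTRF competition using HEK293T-expressed human PD-1(25-167)-Ig at 20 nM and PD-L1(18-239)-His at 10 nM, compound incubated first with PD-L1 for 15 min, then with PD-1 for 15 min. Signal read as 665/620 nm ratio 30 min after adding Eu anti-Ig and APC anti-His antibodies.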

T1 sequence (Q9NZQ7 with tags, fused parts or gaps): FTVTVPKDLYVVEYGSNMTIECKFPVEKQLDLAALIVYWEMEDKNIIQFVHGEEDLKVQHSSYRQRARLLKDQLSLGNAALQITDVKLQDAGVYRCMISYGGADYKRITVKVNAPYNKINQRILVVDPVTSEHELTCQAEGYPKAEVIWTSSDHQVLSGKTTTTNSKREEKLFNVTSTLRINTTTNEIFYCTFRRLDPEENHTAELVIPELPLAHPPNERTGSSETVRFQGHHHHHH

Row | Compound | IC50 [nM]
1 | CCCC[C@H]1C(=O)N(C)[C@@H](CCCC)C(=O)N[C@@H](CC(C)C)C(=O)N[C@H](C(=O)NCC(N)=O)CSCC(=O)N[C@@H](Cc2ccc(O)cc2)C(=O)N(C)[C@@H](C)C(=O)N[C@@H](CC(N)=O)C(=O)N2CCCC2C(=O)N[C@@H](Cc2cnc[nH]2)C(=O)N[C@@H](CCC(N)=O)C(=O)N[C@H](C)C(=O)N[C@@H](Cc2c[nH]c3ccccc23)C(=O)N[C@@H](CO)C(=O)N[C@@H](Cc2c[nH]c3ccccc23)C(=O)N1C (stereo partly drawn) [Example 6168] ({CH2CO}-Y[NMeA]N[ξP]HQ[dA]WSW[NMeNle][NMeNle]LCG-NH2; thioether N-14) | 10 to 99.9
2 | CCCC[C@H]1C(=O)N2CCC[C@@H]2C(=O)N[C@@H](CC(=O)O)C(=O)N[C@@H](C(C)C)C(=O)N(C)[C@@H](Cc2ccccc2)C(=O)N[C@@H](Cc2ccc(O)cc2)C(=O)N2CCC[C@@H]2C(=O)N[C@@H](Cc2c[nH]c3ccccc23)C(=O)N[C@@H](Cc2ccc(O)cc2)C(=O)N[C@@H](CCCN)C(=O)N[C@H](C(=O)NCC(N)=O)CSCC(=O)N[C@@H](Cc2cc(F)c(F)c(F)c2)C(=O)N(C)[C@@H](Cc2ccccc2)C(=O)N1C [Example 10098] ({CH2CO}-[Phe(3,4,5-F3)][NMeF][NMeNle][dP]DV[NMeF]Y[dP]WY[Orn]CG-NH2; thioether N-13) | 1 to 9.9
3 | CCCC[C@H]1C(=O)N2CCC[C@@H]2C(=O)N[C@@H](CC(=O)O)C(=O)N[C@@H](C(C)C)C(=O)N(C)[C@@H](Cc2ccccc2)C(=O)N[C@@H](CCCN)C(=O)N2C[C@H](O)C[C@@H]2C(=O)N[C@@H](Cc2c[nH]c3ccccc23)C(=O)N[C@@H](Cc2ccc(O)cc2)C(=O)N[C@@H](CCOC)C(=O)N[C@H](C(=O)NCC(N)=O)CSCC(=O)N[C@@H](Cc2cc(F)c(F)c(F)c2)C(=O)N(C)[C@@H](Cc2ccccc2)C(=O)N1C [Example 10182] ({CH2CO}-[Phe(3,4,5-F3)][NMeF][NMeNle][dP]DV[NMeF][Orn][d(cisHyp)]WY[hSer](Me)CG-NH2; thioether N-13) | 1 to 9.9
4 | CCCC[C@H]1C(=O)N(C)[C@@H](CCCC)C(=O)N[C@@H](C)C(=O)N[C@H](C(=O)NCC(N)=O)CSCC(=O)N[C@@H](Cc2ccc(O)cc2)C(=O)N2CCCC[C@H]2C(=O)N[C@@H](CC(N)=O)C(=O)N2CCC[C@H]2C(=O)N[C@@H](Cc2cnc[nH]2)C(=O)N[C@@H](CCC(N)=O)C(=O)N2CCOC[C@H]2C(=O)N[C@@H](Cc2c[nH]c3ccccc23)C(=O)N[C@@H](CO)C(=O)N[C@@H](Cc2c[nH]c3ccccc23)C(=O)N1C [Example 1277] | 10 to 99.9
5 | CCCC[C@H]1C(=O)N(C)[C@@H](CCCC)C(=O)N[C@@H](CCC(=O)O)C(=O)N[C@H](C(=O)NCC(N)=O)CSCC(=O)N[C@@H](Cc2ccc(O)cc2)C(=O)N2CCCC[C@H]2C(=O)N[C@@H](CC(N)=O)C(=O)N2CCC[C@H]2C(=O)N[C@@H](Cc2cnc[nH]2)C(=O)N[C@@H](CCCCN)C(=O)N2C[C@H](O)C[C@H]2C(=O)N[C@@H](Cc2c[nH]c3ccccc23)C(=O)N[C@@H](CCCCN)C(=O)N[C@@H](Cc2cn(CC(=O)O)c3ccccc23)C(=O)N1C [Example 1303] ({CH2CO}-Y[Pip]NPHK[Hyp]WK[Trp(1-CH2COOH)][NMeNle][NMeNle]ECG-NH2; thioether N-14) | 10 to 99.9
6 | CCCC[C@H]1C(=O)N(C)[C@@H](CCCC)C(=O)N[C@@H](CC(C)C)C(=O)N[C@H](C(=O)NCC(N)=O)CSCC(=O)N[C@@H](Cc2ccc(O)cc2)C(=O)N(C)[C@@H](C)C(=O)N[C@@H](CCN)C(=O)N2CCC[C@H]2C(=O)N[C@@H](Cc2c[nH]cn2)C(=O)N[C@@H](CCCCN)C(=O)N2C[C@H](O)C[C@H]2C(=O)N[C@@H](Cc2c[nH]c3ccccc23)C(=O)N[C@@H](CCCCN)C(=O)N[C@@H](Cc2c[nH]c3ccccc23)C(=O)N1C [Example 5201] ({CH2CO}-Y[NMeA][Dab]PHK[Hyp]WKW[NMeNle][NMeNle]LCG-NH2; thioether N-14) | 1 to 9.9
7 | CCCC[C@H]1C(=O)N(C)[C@@H](CCCC)C(=O)N[C@@H](CCCNC(=N)N)C(=O)N[C@H](C(=O)NCC(N)=O)CSCC(=O)N[C@@H](Cc2ccc(O)cc2)C(=O)N2CCCC[C@H]2C(=O)N[C@@H](CC(=O)O)C(=O)N2CCC[C@H]2C(=O)N[C@@H](Cc2c[nH]cn2)C(=O)N[C@@H](CCCN)C(=O)N2C[C@H](O)C[C@H]2C(=O)N[C@@H](Cc2c[nH]c3ccccc23)C(=O)N[C@@H](CO)C(=O)N[C@@H](Cc2c[nH]c3ccccc23)C(=O)N1C [Example 1537] ({CH2CO}-Y[Pip]DPH[Orn][Hyp]WSW[NMeNle][NMeNle]RCG-NH2; thioether N-14) | 10 to 99.9
8 | CCCC[C@H]1C(=O)N2CCC[C@@H]2C(=O)N[C@@H](CC(=O)O)C(=O)N[C@@H](C(C)C)C(=O)N(C)[C@@H](Cc2ccccc2)C(=O)N[C@@H](Cc2ccc(O)cc2)C(=O)N2CCNC[C@@H]2C(=O)N[C@@H](Cc2c[nH]c3ccccc23)C(=O)N[C@@H](Cc2ccc(O)cc2)C(=O)N[C@@H](CC(C)C)C(=O)N[C@H](C(=O)NCC(N)=O)CSCC(=O)N[C@@H](Cc2cc(F)c(F)c(F)c2)C(=O)N(C)[C@@H](Cc2ccccc2)C(=O)N1C [Example 10100] ({CH2CO}-[Phe(3,4,5-F3)][NMeF][NMeNle][dP]DV[NMeF]Y[dPip(4-aza)]WYLCG-NH2; thioether N-13) | 1 to 9.9
9 | CCCC[C@H]1C(=O)N2C[C@H](O)C[C@@H]2C(=O)N[C@@H](CC(=O)O)C(=O)N[C@@H](C(C)C)C(=O)N(C)[C@@H](Cc2ccccc2)C(=O)N[C@@H](CCC(N)=O)C(=O)N2C[C@H](O)C[C@@H]2C(=O)N[C@@H](Cc2c[nH]c3ccccc23)C(=O)N[C@@H](Cc2ccc(O)cc2)C(=O)N[C@@H](CCC(=O)O)C(=O)N[C@H](C(=O)NCC(N)=O)CSCC(=O)N[C@@H](Cc2ccc(F)c(F)c2)C(=O)N(C)[C@@H](Cc2ccccc2)C(=O)N1C [Example 9315] ({CH2CO}-[Phe(3,4-F2)][NMeF][NMeNle][d(cisHyp)]DV[NMeF]Q[d(cisHyp)]WYECG-NH2; thioether N-13) | 10 to 99.9

Next, values leading:

Row | IC50 [nM] | Compound
10 | 1 to 9.9 | CCCC[C@H]1C(=O)N(C)[C@@H](CCCC)C(=O)N[C@@H](CC(C)C)C(=O)N[C@H](C(=O)NCC(N)=O)CSCC(=O)N[C@@H](Cc2ccc(OC)cc2)C(=O)N(C)[C@@H](C)C(=O)N[C@@H](CC(N)=O)C(=O)N2CCC[C@H]2C(=O)N[C@@H](CO)C(=O)N[C@@H](CCC(N)=O)C(=O)N2C[C@H](O)C[C@H]2C(=O)N[C@@H](Cc2c[nH]c3ccccc23)C(=O)N[C@@H](CO)C(=O)N[C@@H](Cc2cn(CC(=O)O)c3ccccc23)C(=O)N1C [Example 7142] ({CH2CO}-Y(Me)[NMeA]NPSQ[Hyp]WS[Trp(1-CH2COOH)][NMeNle][NMeNle]LCG-NH2; thioether N-14)
11 | 10 to 99.9 | CCCC[C@H]1C(=O)N(C)[C@@H](C)C(=O)N[C@@H](CCCNC(=N)N)C(=O)NC(C(=O)NCC(N)=O)CSCC(=O)N[C@@H](Cc2ccc(O)cc2)C(=O)N(C)[C@@H](C)C(=O)N[C@@H](CC(N)=O)C(=O)N2CCC[C@H]2C(=O)N[C@@H](CO)C(=O)N[C@H](CC(C)C)C(=O)N2C[C@H](O)C[C@H]2C(=O)N[C@@H](Cc2c[nH]c3ccccc23)C(=O)N[C@@H](CO)C(=O)N[C@@H](Cc2c[nH]c3ccccc23)C(=O)N1C (stereo partly drawn) [Example 9115] ({CH2CO}-Y[NMeA]NPS[dL][Hyp]WSW[NMeNle][NMeA]R[ξC]G-NH2; thioether N-14)
12 | 1 to 9.9 | CCCC[C@H]1C(=O)N(C)[C@@H](CCCC)C(=O)N[C@@H](CCCN)C(=O)N[C@H](C(=O)NCC(N)=O)CSCC(=O)N[C@@H](Cc2ccc(OC)cc2)C(=O)N(C)[C@@H](C)C(=O)N[C@@H](CC(N)=O)C(=O)N2CCC[C@H]2C(=O)N[C@@H](CN)C(=O)N[C@@H](CCC(=O)O)C(=O)N2C[C@H](O)C[C@H]2C(=O)N[C@@H](Cc2c[nH]c3ccccc23)C(=O)N[C@@H](CCN)C(=O)N[C@@H](Cc2c[nH]c3ccccc23)C(=O)N1C [Example 7091] ({CH2CO}-Y(Me)[NMeA]NP[Dap]E[Hyp]W[Dab]W[NMeNle][NMeNle][Orn]CG-NH2; thioether N-14)
13 | 1 to 9.9 | CCCC[C@H]1C(=O)N(C)[C@@H](CCOC)C(=O)N[C@@H](CO)C(=O)N[C@H](C(=O)NCC(N)=O)CSCC(=O)N[C@@H](Cc2ccc(O)cc2)C(=O)N(C)[C@@H](C)C(=O)N[C@@H](CC(N)=O)C(=O)N2CCC[C@H]2C(=O)N[C@@H](Cc2c[nH]cn2)C(=O)N[C@@H](CCC(N)=O)C(=O)N2C[C@H](O)C[C@H]2C(=O)N[C@@H](Cc2c[nH]c3ccccc23)C(=O)N[C@@H](CO)C(=O)N[C@@H](Cc2c[nH]c3ccccc23)C(=O)N1C [Example 10144] ({CH2CO}-Y[NMeA]NPHQ[Hyp]WSW[NMeNle][NMehSer](Me)SCG-NH2; thioether N-14)
14 | 10 to 99.9 | CCCC[C@H]1C(=O)N(C)[C@@H](CCCC)C(=O)N[C@@H](CCCNC(=N)N)C(=O)NC(C(=O)NCC(N)=O)CSCC(=O)N[C@@H](Cc2ccc(O)cc2)C(=O)N(C)[C@@H](C)C(=O)N[C@@H](CC(N)=O)C(=O)N2CCC[C@H]2C(=O)N[C@@H](CC(N)=O)C(=O)N[C@@H](CC(N)=O)C(=O)N2C[C@H](O)C[C@H]2C(=O)N[C@@H](Cc2c[nH]c3ccccc23)C(=O)N[C@@H](CO)C(=O)N[C@@H](Cc2csc3ccccc23)C(=O)N1C (stereo partly drawn) [Example 10012] ({CH2CO}-Y[NMeA]NPNN[Hyp]WS[Bta][NMeNle][NMeNle]R[ξC]G-NH2; thioether N-14)
15 | 100 to 990 | CCCC[C@H]1C(=O)N(C)[C@@H](CCCC)C(=O)N[C@@H](CCC(=O)O)C(=O)NC(C(=O)NCC(N)=O)CSCC(=O)N[C@@H](Cc2ccc(O)cc2)C(=O)N(C)[C@@H](C)C(=O)N[C@@H](CC(N)=O)C(=O)N2CCC[C@H]2C(=O)N[C@@H](Cc2c[nH]cn2)C(=O)N[C@@H](CC(N)=O)C(=O)N2C[C@H](O)C[C@H]2C(=O)N[C@@H](Cc2c[nH]c3ccccc23)C(=O)N[C@@H](CN)C(=O)N[C@@H](Cc2c[nH]c3ccccc23)C(=O)N1C (stereo partly drawn) [Example 9179] ({CH2CO}-Y[NMeA]NPHN[Hyp]W[Dap]W[NMeNle][NMeNle]E[ξC]G-NH2; thioether N-14)
